# Test results published in PMC6014988, “Precision therapeutic targeting of human cancer cell motility” (Nature Communications, 2018).
# Legend:
# [1] = Three-day MTT cell growth inhibition assay, PC3M; type: cell-based, human; settings: human, PC3M cells; PC3M; 3 days
# Source text: (§1) Assays were in replicates of N = 3, and were repeated. […]
# (§2) Values are the mean±SEM of a single experiment, in
# (§3) replicates of N=4, repeated at least once (also N=4).
# (§4) Supplementary Figure 1b. Synthetic round #2.
# PC3M = assay: Three-day MTT cell growth inhibition assay, PC3M; type: cell-based, human
# Source text: as §1, §2, §3, §4
# PC3-M cells = assay: Cell invasion of PC3-M cells with altered HSP90β; type: cell-based, human
# Description: Fig. 4 KBU2046 decreases phosphorylation of HSP90β. a Probing for KBU2046-induced changes in protein phosphorylation. PC3-M or PC3 cells were pre-treated with 10 µM KBU2046 for 3 days, then with ±TGFβ and the resultant cell lysate probed for changes in protein phosphorylation with the KinomeView® assay. The depicted western blot utilizes KinomeView® phospho-motif antibody, BL4176; the blue arrow denotes an 83 kDa band whose phosphorylation is inhibited by KBU2046 (see Supplementary Fig. 10 for complete KinomeView® assay screening data). b Proteomic analysis. PC3 cells were pre-treated with KBU2046 or vehicle, then with TGFβ, proteins from the resultant cell lysate were immunoprecipitated with BL4176, and HSP90β was identified by LC-MS/MS analysis (see Supplementary Fig. 12 for expanded proteomic assay data). The phospho-motif recognized by the antibody is underlined; S*—denotes Ser226, whose phosphorylation is decreased by KBU2046. c, d The phospho-mimetic changes in HSP90β Ser^226 structure regulate human PCa cell invasion and KBU2046 efficacy. PC3-M cells were transfected with S226A-, S226D-, or WT-HSP90β, or empty vector (VC), treated with KBU2046 or vehicle, and cell invasion measured. Values are the mean ± SEM of a representative experiment of multiple experiments (all in replicates of N = 3); *denotes t-test P value <0.05 between bracketed conditions, or compared to VC […]
# Boyden chamber cell invasion assays were performed as previously described by us[30], using either denatured collagen (BD Biosciences) or type IV human collagen (BD Biosciences), with all experiments repeated, each in N = 4 replicates. In some experiments, as indicated, cells were transfected with an expression plasmid, using Lipofectamine 2000™ (Invitrogen), or with siRNA, using DharmaFect Duo (Thermo Scientific) and co-transfected with β-Galactosidase (Plasmid pCMV•SPORT-βgal; Life Technology).
# Supplementary Figure 13. Changes in HSP90β Ser226 structure as well as HSP90β expression regulate PCa cell invasion and KBU2046 efficacy. (a) Levels of HSP90β expression after transfection of cells. In manuscript Figs 4c and d, PC3-M cells were transfected with S226A-, S226D-, or WT-HSP90β, or empty vector (VC) and resultant effects upon cell invasion and KBU2046 efficacy measured. Depicted above are associated Western blots probing for HSP90β, FLAG (transfected HSP90β was FLAG-tagged) and GAPDH. (b-d) Knockdown of HSP90β decreases cell invasion and abrogates KBU2046 efficacy. PC3-M cells were transfected with siRNA to HSP90β (siHSP90b) or non-targeting siRNA (siCO). (b) The level of HSP90β (HSP90b) and HSP90α (HSP90a) transcript levels were measured by qRT/PCR, and expressed relative to that of GAPDH. (c) The level of HSP90β protein expression was measured by Western blot. (d) Cells were treated with KBU2046 (46) or vehicle control, and cell invasion measured. Values are the mean±SEM of a representative experiment of multiple experiments (all in replicates of N=3). *denotes t-test P value </= 0.05 compared to siCO.
# [2] = molecular target: T1, cysteine and glycine-rich protein 1 (Homo sapiens, UniProt P21291); assay: ProtoArray binding, cysteine and glycine-rich protein 1; settings: 10 fold excess free KBU2046
# T1 construct: purchased Invitrogen
# Description: The ProtoArray® assay, using the Human Protein Microarray platform, was performed by Invitrogen. […]
# followed by detection with FITC-streptavidin, and visualization by fluorescent microscopy (with equal exposure times). (d) Protein array hybridization. KBU2046-biotin was hybridized to ProtoArray® Human Protein Microarray’s at 0.5 and 10 µM with and without 10 fold excess free KBU2046. We first sought proteins that met the following criteria, and did so at both 0.5 and 10 µM concentrations of KBU2046-biotin (in the absence of free KBU2046): Z-Score greater than 2.5, Z-Factor greater than 0.5, CI P-value less than 0.05, negative control value <2,000 (relative fluorescence units; RFUs), and a signal/negative control signal of >10 and >5 for 10 µM and 0.5 µM conditions, respectively. This yielded 3 proteins, shown in table, for an initial hit rate of 0.03%. We then required free KBU2046 to inhibit binding by >75%. Of the two remaining candidates, we eliminated isovaleryl-CoA dehydrogenase (ICD). Its binding signal doubled on […]
# suspected non-specific binding by the biotin-linker moiety. We deemed cysteine and glycine-rich protein 1 (CSRP1) our top priority protein, though its binding characteristics at 10 µM + free KBU2046 were similar to ICD, albeit not as extreme. We thus evaluated whether KBU2046- […]
# There were two additional notable findings from protein array studies. […]
# T1 sequence (P21291 whole entry): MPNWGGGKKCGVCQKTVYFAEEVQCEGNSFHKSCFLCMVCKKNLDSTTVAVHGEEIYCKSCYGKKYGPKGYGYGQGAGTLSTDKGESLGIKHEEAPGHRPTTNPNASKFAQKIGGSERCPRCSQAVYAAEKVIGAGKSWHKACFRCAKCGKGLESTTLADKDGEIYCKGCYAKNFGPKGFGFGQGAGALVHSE
compound,measurement,setting,value
"O=C1c2ccccc2OCC1c1ccc(F)cc1 (racemic) [KBU2046, (±)-3(4-fluorophenyl)chroman-4-one]","viability at 3 days, 50 µM",[1],100%
same,IC20,"PC3M; Homo sapiens, PC-3M, 72 h, PC3M, concentration inhibiting cell growth by 20% after 3 days",> 50 µM
same,IC50,"PC3M; Homo sapiens, PC-3M, 72 h, PC3M, concentration inhibiting cell growth by 50% after 3 days",> 50 µM
same,cell growth inhibition,"PC3M; PC3-M cells, three day MTT, SAR rounds",no growth inhibitory
same,cell invasion,PC3-M cells; (S226A)-HSP90β transfected cells,does not further inhibit cell invasion
same,cell invasion,PC3-M cells; (S226D)-HSP90β transfected cells,did not significantly inhibit cell invasion
same,cell invasion,PC3-M cells; VC and WT-HSP90β cells,significantly inhibited invasion
same,cell invasion,PC3-M cells; VC cells,significantly inhibits invasion
same,anti-invasion efficacy,PC3-M cells; siRNA-mediated HSP90β knockdown,abrogated KBU2046 efficacy
same,% inhibition by competitor,[2]; 0.5 uM KBU2046-biotin,79%
same,% inhibition by competitor,[2]; 10 uM KBU2046-biotin,33%
